Patent publication US20040220086A1, “Methods and materials for targeting and affecting selected cells” (priority 2001, published 2004)

What was measured:
leukemic cells = settings: cells from peripheral blood and marrow of leukemia patients; cited from earlier work
[1] = test system: normal or transferrin receptor-negative cells; settings: cited from earlier work
[2] = test system: drug-resistant HL60 cells; settings: cited from earlier work
[3] = test system: leukemic cells in peripheral blood; settings: cited from earlier work
metastatic sarcoma = settings: person, 2000 as printed
Experimental: This concerns a person with metastatic disease from a sarcoma of their right atrium who was treated beginning August, 2000 by using conventional protocols.

human mesothelioma cells = settings: cited from earlier work
NADH-oxidase = settings: plasma membrane redox enzyme; cited from earlier work
[4] = test system: drug-resistant K562 cells; settings: cited from earlier work
[5] = cited from earlier work
[6] = nude mice; cited from earlier work

transferrin-doxorubicin conjugates
selective killing of leukemic cells (leukemic cells): kill selectively
binding to cells [1]: do not bind
killing of cells resistant to doxorubicin [2]: effective in killing
decrease of number of leukemic cells in peripheral blood ([3]; 7 patients, within 10-days following therapy): 86%
extension of disease by bone marrow biopsies before and after treatment ([3]; acute leukemia patients): no extension of disease
toxic effects ([3]; seven acute leukemia patients, 1 mg/day intravenously for 5 days): no toxic effects
radiological evidence of tumor (metastatic sarcoma; by January): no radiological evidence of tumor
metastatic lesions of the lungs (metastatic sarcoma; treatment begun November 2000, by January): substantially cleared
survival compared with free doxorubicin (human mesothelioma cells; nude mice bearing drug-resistant human tumors): survive longer
life prolongation compared to animals treated only with doxorubicin (human mesothelioma cells; nude mice, human mesothelioma cells): significantly prolonged life
inhibition of NADH-oxidase (NADH-oxidase): inhibit
killing of cells resistant to doxorubicin [4]: effective in killing

O=C(O)CCCc1ccc(N(CCCl)CCCl)cc1 [chlorambucil]
survival of treated mice [5]: died

COc1cccc2c1C(=O)c1c(O)c3c(c(O)c1C2=O)C[C@@](O)(C(=O)CO)C[C@@H]3O[C@H]1C[C@H](N)[C@H](O)[C@H](C)O1 [doxorubicin, reference compound]
inhibition of NADH-oxidase (NADH-oxidase): efficient inhibitor

human transferrin-chlorambucil conjugates: human transferrin conjugated to chlorambucil, reference 51
survival of treated mice [5]: survived
toxicity compared with free chlorambucil ([5]; mice): less toxic

B1: neocarzinostatin (protein, UniProt P0A3R9 35-147, looked up)
Neocarzinostatin: AAPTATVTPSSGLSDGTVVKVAGAGLQAGTAYDVGQCAWVDTGVLACNPADFSSVTADANGSASTSLTVRRSFEGFLFDGTRWGTVDCTTAACQVGLSDAAGNGPEGVAISFN
modifications: with enediyne chromophore
half-life [6]: 7 min
